According to patent publication US11912794B2, “Modulation of structured polypeptide specificity” (BicycleRD Limited, priority 2011, dated 2024):
Like-named read-outs stand apart in the source and are kept apart here. Numbered stars: 1 amine (or outer) side, 2 acyl side, 3 side chain; on linkers, the order of the positions; unused ones are H or OH. Bridge positions count the residues as written; N and C are the ends. Square brackets hold non-standard residues; d marks the D form. Peptide text beside a SMILES is read from it. 1Nal = N[C@@H](Cc1cccc2ccccc12)C(=O)O; TBMB = c1c(C[*:1])cc(C[*:3])cc1C[*:2]; NMeR = CN[C@@H](CCCNC(=N)N)C(=O)O; 3Pal = N[C@@H](Cc1cccnc1)C(=O)O; 4Pal = N[C@@H](Cc1ccncc1)C(=O)O; Cha = N[C@@H](CC1CCCCC1)C(=O)O; Aze = O=C(O)[C@@H]1CCN1; Abu = CC[C@H](N)C(=O)O; Sar = CNCC(=O)O

Experiments:
[1] = target: T1, human plasma Kallikrein (Homo sapiens, UniProt P03952); test: Functional enzyme inhibition assay, fluorogenic substrate Z-PheArg-AMC; format: biochemical; details: for loss in potency / reduction in affinity compared to wildtype: vs Ac-06-34-18(TMB)-NH2
T1 construct: purchased Stratech, UK
Experimental: Peptides were dissolved as the TFA-salts in their powder form, and stock solutions were usually prepared in water. All solutions were centrifuged and filtered ([…] syringe filters) prior absorption measurement at 280 nm. […] For peptides containing non-natural amino acids with suspected chromophoric properties (i.e. NorHar, 4PhenylPro, 3PaI, 4PaI, Tic, 4GuanPhe, 4,4-BPAI, 3,3-DPA, 1NAI, 2NAI, 4BenzylPro, Ind) concentrations were determined by weighing the powder and dissolving the peptide in a defined quantity of water.

[2] = Plasma stability profiling method 1 (35% plasma, MALDI-TOF, qualitative); format: in vitro ADME, rat; details: 35% rat plasma, 37 deg C, method 1, comparative estimate
Experimental: Three methods were employed to assess the stability of bicycles (peptides conjugated to molecular scaffolds) in plasma.
A rapid plasma stability profiling assay was developed that employed mass spectrometric detection (MALDI-TOF, Voyager DE, Applied Biosystems) of the parent mass, until the time when the parent peptide mass was no longer observable. Specifically, 200 uM of peptide was incubated in the presence of 35% rat or human plasma (Sera labs, using citrate as anticoagulant) at 37 deg C., which was supplemented with 1×PBS (derived from a 10×PBS Stock, Sigma). At various time points (i.e. t=0, 3, 24 hrs, henceafter daily up to 10 days), 2 uL of sample was added to 18 uL of 30 mM ammonium bicarbonate in a 1:1 mixture of acetonitrile:H2O. Samples were frozen at −80 deg C. until the time of analysis. For mass spectrometric analysis that determines the approximate detection window of the peptide, the acetonitrile:H2O-diluted sample of a given time point was spotted directly (0.7 uL) onto the MALDI plate. Matrix (alpha-cyanocinnamic acid, Sigma, prepared as a saturated solution in 1:1 acetonitrile:water containing 0.1% trifluoroacetic acid) was layered over the sample (1 uL). At a similar laser intensity setting on the MALDI TOF, the time could then be determined until parent peptide was no longer detectable. It should be noted that this is a qualitative assay serves to detect relative changes in plasma stability.

[3] = Ki (nM) (human kallikrein), Ac-06-34-18(TMB)-NH2 series

T1 sequence (P03952 20-638): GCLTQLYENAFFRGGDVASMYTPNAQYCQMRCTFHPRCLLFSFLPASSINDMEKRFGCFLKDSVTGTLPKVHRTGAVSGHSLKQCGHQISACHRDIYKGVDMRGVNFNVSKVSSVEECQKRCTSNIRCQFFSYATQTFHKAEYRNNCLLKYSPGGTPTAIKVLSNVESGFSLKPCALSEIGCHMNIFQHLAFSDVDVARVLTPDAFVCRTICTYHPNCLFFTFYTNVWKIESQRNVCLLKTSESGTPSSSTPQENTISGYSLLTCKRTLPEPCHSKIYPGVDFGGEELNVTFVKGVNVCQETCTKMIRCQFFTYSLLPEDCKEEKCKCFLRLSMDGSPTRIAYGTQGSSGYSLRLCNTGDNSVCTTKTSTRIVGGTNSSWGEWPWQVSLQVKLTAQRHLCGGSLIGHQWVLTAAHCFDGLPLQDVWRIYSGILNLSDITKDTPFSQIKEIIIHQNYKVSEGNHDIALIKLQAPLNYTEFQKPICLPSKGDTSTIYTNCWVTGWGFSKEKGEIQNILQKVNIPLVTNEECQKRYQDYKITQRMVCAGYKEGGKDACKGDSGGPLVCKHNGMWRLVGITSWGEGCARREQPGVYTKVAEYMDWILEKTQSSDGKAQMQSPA

## CC[C@@H]1NC(=O)[C@@H]2CCCN2C(=O)[C@H](Cc2c[nH]c3ccccc23)NC(=O)[C@H](CO)NC(=O)[C@@H](NC(C)=O)CSCc2cc3cc(c2)CSC[C@H](NC(=O)[C@H](CCCNC(=N)N)NC1=O)C(=O)N[C@@H](CC(C)C)C(=O)N[C@@H](Cc1c[nH]cn1)C(=O)N[C@@H](CCC(N)=O)C(=O)N[C@@H](CC(=O)O)C(=O)N[C@@H](CC(C)C)C(=O)N[C@H](C(N)=O)CSC3 [Ac-(06-34-18) Aba4] (Ac-CSWP[Abu]RCLHQDLC-NH2; linker 1-7-13 via TBMB)
[1]; [3]
  Ki: 0.07 nM
[2]
  Observable in rat plasma, for days: 2 days

## CC(=O)N[C@H]1CSCc2cc3cc(c2)CSC[C@H](NC(=O)[C@H](CCCNC(=N)N)NC(=O)[C@@H](C)NC(=O)[C@@H]2CCCN2C(=O)[C@H](Cc2c[nH]c4ccccc24)NC(=O)[C@H](CO)NC1=O)C(=O)N[C@@H](CC(C)C)C(=O)N[C@@H](Cc1c[nH]cn1)C(=O)N[C@@H](CCC(N)=O)C(=O)N[C@@H](CC(=O)O)C(=O)N[C@@H](CC(C)C)C(=O)N[C@H](C(N)=O)CSC3 [Ac-(06-34-18) D-Ala4]
[1]
  loss in potency / reduction in affinity compared to wildtype: 7000 fold

## CC(C)C[C@@H]1NC(=O)[C@H](CC(=O)O)NC(=O)[C@H](CCC(N)=O)NC(=O)[C@H](Cc2c[nH]cn2)NC(=O)[C@H](C)NC(=O)[C@@H]2CSCc3cc(cc(c3)CSC[C@@H](C(=O)N[C@@H](C)C(N)=O)NC1=O)CSC[C@H](NC(=O)[C@H](C)N)C(=O)N[C@@H](C)C(=O)N[C@@H](Cc1c[nH]c3ccccc13)C(=O)N1CCC[C@H]1C(=O)N[C@@H](C)C(=O)N[C@@H](CCCNC(=N)N)C(=O)N2 [06-34-03 - Ala1,6] (H-ACAWPARCAHQDLCA-NH2; linker 2-8-14 via TBMB; N-terminus and C-terminus assumed)
[1]
  potency against human plasma Kallikrein compared to parent: retained full potency

## CC(=O)N[C@H]1CSCc2cc3cc(c2)CSC[C@H](NC(=O)[C@@H](CCCNC(=N)N)NC(=O)[C@H](C)NC(=O)[C@@H]2CCCN2C(=O)[C@H](Cc2c[nH]c4ccccc24)NC(=O)[C@H](CO)NC1=O)C(=O)N[C@@H](CC(C)C)C(=O)N[C@@H](Cc1c[nH]cn1)C(=O)N[C@@H](CCC(N)=O)C(=O)N[C@@H](CC(=O)O)C(=O)N[C@@H](CC(C)C)C(=O)N[C@H](C(N)=O)CSC3 [Ac-(06-34-18) D-Arg5]
[1]
  loss in potency / reduction in affinity compared to wildtype: 300 fold

## CC(=O)N[C@H]1CSCc2cc3cc(c2)CSC[C@H](NC(=O)[C@H](CCCNC(=N)N)NC(=O)[C@H](Cc2ccncc2)NC(=O)[C@@H]2CCCN2C(=O)[C@H](Cc2ccccc2)NC(=O)[C@H](CO)NC1=O)C(=O)N[C@@H](CC(C)C)C(=O)N[C@@H](Cc1c[nH]cn1)C(=O)N[C@@H](CCC(N)=O)C(=O)N[C@@H](CC(=O)O)C(=O)N[C@@H](CC(C)C)C(=O)N[C@H](C(N)=O)CSC3 [Ac-(06-34-18) Phe2 4Pal4] (Ac-CSFP[4Pal]RCLHQDLC-NH2; linker 1-7-13 via TBMB)
[1]; [3]
  Ki: 2.2 nM

## CN=C(NC)NCCC[C@@H]1NC(=O)[C@H](C)NC(=O)[C@@H]2CCCN2C(=O)[C@H](Cc2c[nH]c3ccccc23)NC(=O)[C@H](CO)NC(=O)[C@@H](NC(C)=O)CSCc2cc3cc(c2)CSC[C@H](NC1=O)C(=O)N[C@@H](CC(C)C)C(=O)N[C@@H](Cc1c[nH]cn1)C(=O)N[C@@H](CCC(N)=O)C(=O)N[C@@H](CC(=O)O)C(=O)N[C@@H](CC(C)C)C(=O)N[C@H](C(N)=O)CSC3 [Ac-(06-34-18) SDMA5]
[1]; [3]
  Ki: 1410 nM

## CC(=O)N[C@H]1CSCc2cc3cc(c2)CSC[C@H](NC(=O)[C@H](CCCNC(=N)N)NC(=O)[C@H](Cc2cccc4ccccc24)NC(=O)[C@@H]2CCCN2C(=O)[C@H](Cc2ccccc2)NC(=O)[C@H](CO)NC1=O)C(=O)N[C@@H](CC(C)C)C(=O)N[C@@H](Cc1c[nH]cn1)C(=O)N[C@@H](CCC(N)=O)C(=O)N[C@@H](CC(=O)O)C(=O)N[C@@H](CC(C)C)C(=O)N[C@H](C(N)=O)CSC3 [Ac-(06-34-18) Phe2 1Nal4] (Ac-CSFP[1Nal]RCLHQDLC-NH2; linker 1-7-13 via TBMB)
[1]; [3]
  Ki: 13.5 nM

## CC(C)C[C@@H]1NC(=O)[C@H](CC(=O)O)NC(=O)[C@H](CCC(N)=O)NC(=O)[C@H](Cc2c[nH]cn2)NC(=O)[C@H]([C@@H](C)O)NC(=O)[C@@H]2CSCc3cc(cc(c3)CSC[C@@H](C(=O)N[C@@H](C)C(N)=O)NC1=O)CSC[C@H](NC(=O)[C@H](C)N)C(=O)N[C@@H](CCCNC(=N)N)C(=O)N[C@@H](Cc1c[nH]c3ccccc13)C(=O)N1CCC[C@H]1C(=O)N[C@@H](C)C(=O)N[C@@H](CCCNC(=N)N)C(=O)N2 [Peptide 06-34-02] (H-ACRWPARCTHQDLCA-NH2; linker 2-8-14 via TBMB)
[1]
  IC50: 0.16 nM

## CC(=O)N[C@H]1CSCc2cc3cc(c2)CSC[C@H](NC(=O)[C@H](CCCNC(=N)N)NC(=O)[C@H](CC2CCCCC2)NC(=O)[C@@H]2CCCN2C(=O)[C@H](Cc2ccccc2)NC(=O)[C@H](CO)NC1=O)C(=O)N[C@@H](CC(C)C)C(=O)N[C@@H](Cc1c[nH]cn1)C(=O)N[C@@H](CCC(N)=O)C(=O)N[C@@H](CC(=O)O)C(=O)N[C@@H](CC(C)C)C(=O)N[C@H](C(N)=O)CSC3 [Ac-(06-34-18) Phe2 Cha4] (Ac-CSFP[Cha]RCLHQDLC-NH2; linker 1-7-13 via TBMB)
[1]; [3]
  Ki: 0.91 nM

## CC(=O)N[C@H]1CSCc2cc3cc(c2)CSC[C@H](NC(=O)[C@H](CCCNC(=N)N)NC(=O)[C@H](C)NC(=O)[C@@H]2CCCN2C(=O)[C@@H](Cc2c[nH]c4ccccc24)NC(=O)[C@H](CO)NC1=O)C(=O)N[C@@H](CC(C)C)C(=O)N[C@@H](Cc1c[nH]cn1)C(=O)N[C@@H](CCC(N)=O)C(=O)N[C@@H](CC(=O)O)C(=O)N[C@@H](CC(C)C)C(=O)N[C@H](C(N)=O)CSC3 [Ac-(06-34-18) D-Trp2]
[1]
  loss in potency / reduction in affinity compared to wildtype: 45000 fold

## CC(=O)N[C@H]1CSCc2cc3cc(c2)CSC[C@H](NC(=O)[C@H](CCCNC(=N)N)NC(=O)[C@H](Cc2ccc(O)cc2)NC(=O)[C@@H]2CCCN2C(=O)[C@H](Cc2ccncc2)NC(=O)[C@H](CO)NC1=O)C(=O)N[C@@H](CC(C)C)C(=O)N[C@@H](Cc1c[nH]cn1)C(=O)N[C@@H](CCC(N)=O)C(=O)N[C@@H](CC(=O)O)C(=O)N[C@@H](CC(C)C)C(=O)N[C@H](C(N)=O)CSC3 [Ac-(06-34-18) 4Pal2 Tyr4] (Ac-CS[4Pal]PYRCLHQDLC-NH2; linker 1-7-13 via TBMB)
[1]; [3]
  Ki: 3.56 nM

## CC(=O)N[C@H]1CSCc2cc3cc(c2)CSC[C@H](NC(=O)[C@H](Cc2ccc(NC(=N)N)cc2)NC(=O)[C@H](C)NC(=O)[C@@H]2CCCN2C(=O)[C@H](Cc2c[nH]c4ccccc24)NC(=O)[C@H](CO)NC1=O)C(=O)N[C@@H](CC(C)C)C(=O)N[C@@H](Cc1c[nH]cn1)C(=O)N[C@@H](CCC(N)=O)C(=O)N[C@@H](CC(=O)O)C(=O)N[C@@H](CC(C)C)C(=O)N[C@H](C(N)=O)CSC3 [Ac-(06-34-18) 4GuanPhe5]
[1]
  loss in potency / reduction in affinity compared to wildtype: 2 fold

## CC(=O)N[C@H]1CSCc2cc3cc(c2)CSC[C@H](NC(=O)[C@H](CCCNC(=N)N)NC(=O)[C@H](Cc2ccc(O)cc2)NC(=O)[C@@H]2CCCN2C(=O)[C@H](Cc2cccnc2)NC(=O)[C@H](CO)NC1=O)C(=O)N[C@@H](CC(C)C)C(=O)N[C@@H](Cc1c[nH]cn1)C(=O)N[C@@H](CCC(N)=O)C(=O)N[C@@H](CC(=O)O)C(=O)N[C@@H](CC(C)C)C(=O)N[C@H](C(N)=O)CSC3 [Ac-(06-34-18) 3Pal2 Tyr4] (Ac-CS[3Pal]PYRCLHQDLC-NH2; linker 1-7-13 via TBMB)
[1]; Ki, text b293, unit inferred
  Ki: 0.91 nM

## CC(C)C[C@@H]1NC(=O)[C@H](CC(=O)O)NC(=O)[C@H](CCC(N)=O)NC(=O)[C@H](Cc2c[nH]cn2)NC(=O)CN(C)C(=O)[C@@H]2CSCc3cc(cc(c3)CSC[C@H](NC(=O)[C@H](C)N)C(=O)N(C)CC(=O)N[C@@H](Cc3c[nH]c4ccccc34)C(=O)N3CCC[C@H]3C(=O)N[C@@H](C)C(=O)N[C@@H](CCCNC(=N)N)C(=O)N2)CSC[C@@H](C(=O)N[C@@H](C)C(N)=O)NC1=O [06-34-03 - N-MeGly1,6, AC N-MeGWPARCN-MeGHQDLCA] (H-AC[Sar]WPARC[Sar]HQDLCA-NH2; linker 2-8-14 via TBMB; N-terminus and C-terminus assumed)
[1]
  potency against human plasma Kallikrein compared to parent: reduction in potency

## CC(=O)N[C@H]1CSCc2cc3cc(c2)CSC[C@H](NC(=O)[C@H](CCCNC(=N)N)N(C)C(=O)[C@H](Cc2ccc(O)cc2)NC(=O)[C@@H]2CCN2C(=O)[C@H](Cc2ccccc2)NC(=O)[C@H](CO)NC1=O)C(=O)N[C@@H](CC(C)C)C(=O)N[C@@H](Cc1c[nH]cn1)C(=O)N[C@@H](CCC(N)=O)C(=O)N[C@@H](CC(=O)O)C(=O)N[C@@H](CC(C)C)C(=O)N[C@H](C(N)=O)CSC3 [Ac-(06-34-18) Phe2 Aze3Tyr4 NMeArg5] (Ac-CSF[Aze]Y[NMeR]CLHQDLC-NH2; linker 1-7-13 via TBMB)
[1]; Ac-06-34-18(TMB)-NH2 series, read-out: Ki (nM) (human kallikrein)
  Ki: < 1 nM
